According to ChEMBL document CHEMBL1132582, “Bicyclic tripeptide mimetics with reverse turn inducing properties” (J Med Chem, 1999):

Legend:
[1] = biological target: T1, Angiotensin II receptor (AT-1) type-1 (Rattus norvegicus, UniProt P29089+P25095); test: Compound was evaluated in a radioligand binding assay to displace [125I]-Ang II from Angiotensin II receptor, type 1 in rat liver membranes; type: cell membranes, Membrane
T1 sequence (P29089 whole entry): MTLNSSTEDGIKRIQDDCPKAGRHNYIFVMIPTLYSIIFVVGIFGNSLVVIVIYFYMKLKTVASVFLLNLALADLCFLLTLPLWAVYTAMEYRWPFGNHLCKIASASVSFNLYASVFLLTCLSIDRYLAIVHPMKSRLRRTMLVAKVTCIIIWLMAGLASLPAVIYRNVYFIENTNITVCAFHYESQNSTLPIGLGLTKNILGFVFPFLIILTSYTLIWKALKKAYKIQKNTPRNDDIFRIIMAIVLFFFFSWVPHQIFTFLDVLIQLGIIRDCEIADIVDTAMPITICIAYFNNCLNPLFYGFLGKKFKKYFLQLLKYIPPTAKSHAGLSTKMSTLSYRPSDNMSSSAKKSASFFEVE
T1 sequence (P25095 whole entry): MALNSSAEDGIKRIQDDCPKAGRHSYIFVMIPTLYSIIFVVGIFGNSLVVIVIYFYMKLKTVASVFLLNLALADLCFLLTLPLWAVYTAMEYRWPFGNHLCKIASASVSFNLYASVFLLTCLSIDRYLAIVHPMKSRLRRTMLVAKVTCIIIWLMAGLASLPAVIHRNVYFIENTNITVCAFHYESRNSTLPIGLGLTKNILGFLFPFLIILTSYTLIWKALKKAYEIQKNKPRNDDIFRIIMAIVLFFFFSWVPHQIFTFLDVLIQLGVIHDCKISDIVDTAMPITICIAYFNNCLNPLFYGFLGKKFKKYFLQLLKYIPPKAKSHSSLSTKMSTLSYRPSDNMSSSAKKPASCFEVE

[2] = biological target: T1, Angiotensin II receptor (AT-1) type-1; test: Compound was evaluated in a binding assay using Chinese hamster ovary (CHO) cells stably expressing the rat Angiotensin II receptor, type 1; type: cell-based

Question: Which IC50 [1] does the source give for `NC(N)=NCCC[C@H](NC(=O)[C@@H](N)CC(=O)O)C(=O)N[C@H]1C[C@H]2SC[C@@H](C(=O)N[C@@H](Cc3c[nH]cn3)C(=O)N3CCC[C@H]3C(=O)N[C@@H](Cc3ccccc3)C(=O)O)NC(=O)[C@H](Cc3ccc(O)cc3)N2C1=O` here?
Answer: >= 10 uM

Question: And the IC50 [2]?
Answer: >= 10 uM
